# Values joined by “and” are separate entries in the source; they are usually repeats but may differ in a detail not shown here. Equal entries are not always repeated. Marks after values point to notes of the source that are not given here.
# Tests used:
# [1] = system: human lung cancer A549 cells; experiment: Cell invasion assayed by Transwell; format: cell-based; conditions: invaded cells, control 183.0 ± 12.3
# Description: Cell lines: human colon cancer HCT-116 cells and human lung cancer A549 cells were provided by NANJING […] BIOTECH. CO., LTD. […] The cell suspension was centrifuged at 800 to 1,000 rpm for 5 min, and the supernatant was discarded; 1.4. A complete culture medium was added to the cell pellet which was well mixed by gentle pipetting, the cell suspension was transferred to a culture flask, and the cells were cultured by supplementing culture medium. 1. […] After incubation of cells with the test drugs for 24 hours, serum was removed, and the cells were incubated under starvation with an incomplete culture medium for 24 hours; 3. Matrigel was placed at 4° C. in advance to thaw overnight; 4. Thawed Matrigel was 1:1 diluted with the incomplete culture medium, 30 μl diluted Matrigel was added to the upper compartment of Transwell and incubated at 37° C. for 120 min to gel the Matrigel; 5. Cells from different groups were digested, counted, and then adjusted to a density of 1×10^5 cells/ml with the incomplete culture medium, 100 μl cell suspension was added to the upper compartment (small compartment) of Transwell, and 500 μl medium containing 20% FBS was added to the lower compartment of Transwell; 6. A 24-well cell culture plate was placed in an incubator at 37° C. and 5% CO2 to culture the cells for 24 hours; 7. […] The assay was repeated one more time.
# [2] = system: human lung cancer A549 cells; experiment: Cell cycle by PI single staining (flow cytometry); format: cell-based; conditions: deuterium oxide 30% v/v, 72 hours
# Description: Effect of deuterium oxide on the cell cycle of human lung cancer A549 cells and human colon cancer HCT-116 cells Human lung cancer A549 cells and human colon cancer HCT-116 cells were provided by NANJING […] BIOTECH. CO., LTD., and cultured in an incubator at 37° C., 5% CO2 and saturated humidity. A KGA511 Cell cycle assay kit was provided by NANJING […] BIOTECH. CO., LTD. The flow cytometer was FACS Calibur provided by Becton-Dickinson, US. […] The cell suspension was centrifuged at 800 to 1,000 rpm for 5 min, and the supernatant was discarded; 1.4. A complete culture medium was added to the cell pellet which was well mixed by gentle pipetting, the cell suspension was transferred to a culture flask, and the cells were cultured by supplementing culture medium. […] When all the cells became round, an equal volume of culture medium containing serum was added to cease the digestion; 2.4. The cells were blown by pipetting to suspend, then drawn into a 15 ml centrifugal tube, and centrifuged at 1000 rpm for 5 min; 2.5. […] 1. Cells growing in the exponential phase were digested and inoculated to a 6-well plate; on the next day, after the cells attached to the wall, cell culture media containing corresponding test drugs were added according to different groups, and a negative control group was also set; 2. […] The cells were washed with PBS once (centrifuged at 2,000 rpm for 5 min), and 5×10^5 cells were collected; 4. […] In a detection apparatus, red fluorescence with an excitation wavelength of 488 nm was recorded.
# [3] = system: xenograft tumors from human colon cancer HCT-116 cells; experiment: HCT-116 xenograft in nude mice, intravenous deuterium oxide in combination with 5-fluorouracil; format: in vivo, BALB/c nude mice; conditions: for Inhibition (%): tumor weight
# Description: Ltd. Cell lines: human colon cancer cells HCT-116 were provided by NANJING […] BIOTECH. CO., LTD. […] Bone marrow nucleated cells were isolated by a routine method, DNA was extracted from the cells, the OD value was measured in a UV-260 spectrometer as a representative of the DNA content, and inhibition of DNA synthesis by the test samples was observed. The test used 7 groups in total, with 8 animals per group. […] Tumor volume (TV) was calculated by the following equation: […] From the measurements, relative tumor volume (RTV) was calculated by the following equation: RTV=Vt/V0 Relative tumor growth ratio T/C (%) was calculated by the following equation: Criteria of efficacy evaluation: […] T/C %≦40% and statistically P<0.05, efficacious. Inhibition of tumor growth (%) was calculated by the following equation: Criteria of efficacy evaluation: […] The mean value was expressed in X±SD. Inter-group analysis was statistically performed with t test. The results were statistically analyzed using SPSS (Statistical Package for the Social Science) 17.0.
# malignant tumors = conditions: as a single drug in clinical settings; cited from earlier work
# [4] = 5-FU(H) 30 mg/kg × 11, tail vein
# [5] = 5-FU(L) 12 mg/kg × 11, tail vein
structure (smiles),measurement,setting,value
[2H]O[2H] [Deuterium oxide],Number of cells (A549),[1]; deuterium oxide 1.8% (v/v),74.3 ± 11.0
same,Number of cells (A549),[1]; deuterium oxide 7.5% (v/v),43.0 ± 4.4
same,Number of cells (A549),[1]; deuterium oxide 15% (v/v),29.3 ± 1.5
same,Number of cells (A549),[1]; deuterium oxide 30% (v/v),22.0 ± 1.7
same,Number of cells (A549),[1]; deuterium oxide […] (v/v),54.0 ± 2.0
same,G2 Phase,[2]; control 6.21 ± 4.52,13.47 ± 3.94%
same,S Phase,[2]; control 13.50 ± 1.33,0.31 ± 0.28%
same,G1 Phase,[2]; control 80.29 ± 5.02,86.23 ± 3.69%
"O=c1[nH]cc(F)c(=O)[nH]1 [Example 5-FU, 5-fluorouracil]","Body weight (g) End, given as change",[3]; [4],-1.0 g
same,Body weight (g) Initial,[3]; [4],18.4 ± 0.5 g and 18.4 g
same,Bone marrow DNA content (OD),[3]; [4],0.836 ± 0.5023 OD
same,Tumor weight,[3]; [4],1.04 ± 0.13 g
same,"Body weight (g) End, given as change",[3]; [5],-0.6 g
same,Body weight (g) Initial,[3]; [5],18.0 g
same,Bone marrow DNA content (OD),[3]; [5],0.897 ± 0.3783 OD
same,Tumor weight,[3]; [5],2.23 ± 0.2 g
same,tumor volume,"[3]; 21 days after administration, low-dose 5-FU alone",2.27±0.30 cm^3
same,body weight at end,[3]; high-dose 5-FU positive control,17.4 ± 0.5 g
same,T/C (relative tumor growth ratio),"[3]; low-dose 5-FU alone, vs negative control",80.91%
same,Inhibition (%),[3]; [4],64.38%*
same,Inhibition (%),[3]; [5],23.64% and 23.63%
same,overall response rate,malignant tumors,10%
